Measurements as given in patent publication US12084431B2, “Pharmaceutical salts of pyrimidine derivatives and method of treating disorders” (ARIAD Pharmaceuticals, Inc., priority 2018, dated 2024).
Read-outs that look alike come from different tables or passages of the source.

Columns and labels:
[1] = test system: advanced NSCLC (EGFR exon 20 insertions); assay: Phase 1/2 study, antitumor activity / disease assessment by RECIST v1.1; assay type: in vivo, human
Protocol: 52 patients were enrolled as of 30 Jan. 2018.
Disease stabilization started to be reported at the 40 mg QD cohort. Disease assessments for patients who had at least one disease assessment following treatment with Compound (A) are shown in Table 21. All patients who responded have EGFR exon 20 insertion mutations and had previously been treated with platinum-based chemotherapy, EGFR TKIs, or PD-1 inhibitors.

[2] = Phase 1/2 study, safety (adverse events, dose limiting toxicities, MTD)
Protocol: Patients with advanced NSCLC refractory to standard therapy received daily oral doses (5-120 mg) of Compound (A) in the dose-escalation phase. Compound (A) was provided as polymorphic Form-I of the succinate salt of Compound (A). Compound (A) was formulated as a drug-in-capsule with no excipients and administered orally. Preliminary antitumor activity (by RECIST v1.1), safety and pharmacokinetics are reported for patients receiving at least one dose.
As part of the same phase ½ study as described in Example 12, a dose escalation study was performed. […] 2018.
The phase 2 portion of the study was initiated to expand the study in two 160 mg QD cohorts (EGFR exon 20 mutant NSCLC patients with or without brain metastases) and continue to enroll more patients in the 120 mg cohort.

[3] = Single rising dose study in healthy subjects (safety, food effect, relative bioavailability); assay type: in vivo, human
Excerpt: This study is a randomized, double-blind, placebo-controlled single rising dose study (Part 1), followed by an open-label, crossover evaluation of the effects of a low-fat meal on the pharmacokinetics (PK) of Compound (A) (Part 2), and a crossover evaluation of the relative bioavailability of Compound (A) drug-in-capsule (DiC) (test) versus DiC (reference) in healthy subjects (Part 3).

[4] = Clinical pharmacokinetics in NSCLC patients, oral once daily; assay type: in vivo, human; settings: for half-life: human, plasma, po
Protocol: Clinical PK data includes data from the dose escalation portion of the study. Compound (A) has been administered orally once per day in 28-day treatment cycles at dose levels of 5, 10, 20, 40, 80, 120, 160 and 180 mg. […] The dosage identified in milligrams (mg) is based on the weight of the freebase of Compound (A). FIGS. 33, 34 show the mean plasma concentration-time profiles of Compound (A) following oral administration of Compound (A) once per day in NSCLC patients.
Compound (A) is administered orally on an empty stomach once per day continuously.

[5] = Stability stress testing (ambient light, 40° C./75% RH, 80° C., 7 days; XRPD and HPLC purity); assay type: physicochemical
Protocol: Approximately 5 mg of the appropriate samples were placed into 2 mL clear glass vials and the vials were all stored open under the conditions of ambient light, 40° C./75% RH, and 80° C. for 7 days, respectively. The ambient light sample was left open on the bench at room temperature. The 80° C. sample was placed open into an 80° C. oven.

[6] = Thermodynamic aqueous solubility studies (de-ionized water, 24 h, HPLC concentration, filtrate pH, XRPD of solid); settings: pH of filtrate after 24 h slurry in de-ionized water (pH 6.97), ambient temperature
Protocol: (§1) The resulting solid material was isolated by centrifugation and analyzed by XRPD, while the filtrate was analyzed by HPLC for concentration determination. The pH of the resulting filtrate was also determined.

[7] = Vapour sorption analysis (GVS, hygroscopicity); assay type: physicochemical; settings: % uptake at 90% RH
Protocol: Approximately 10 mg of the sample was placed into a mesh vapor sorption balance pan and loaded into an IGASorp Moisture Sorption Analyzer balance by Hiden Analytical. The sample was subjected to a ramping profile from 40 to 90% relative humidity (RH) at 10% increments to 90% RH, maintaining the sample at each step until a stable weight had been achieved (98% step completion). After completion of the sorption cycle, the sample was dried using the same procedure (initially from 90% RH to 0% RH and finally taken back to the starting point of 40% RH). The sorption/desorption profiles were then repeated to give a double-cycle plot. The weight changes during the sorption/desorption cycles were plotted, allowing for the hygroscopic nature of the sample to be determined.

physchem = settings: pH 6.97, water, thermodynamic from solid
Protocol: as §1

[8] = 80 mg QD cohort, oral, NSCLC patients, RECIST v1.1
[9] = 120 mg QD cohort, oral, NSCLC patients, RECIST v1.1

**Q.** For C=CC(=O)Nc1cc(Nc2ncc(C(=O)OC(C)C)c(-c3cn(C)c4ccccc34)n2)c(OC)cc1N(C)CCN(C)C [Compound (A), propan-2-yl 2-[5-(acryloylamino)-4-{[2-(dimethylamino)ethyl](methyl)amino}-2-methoxyanilino]-4-(1-methyl-1H-indol-3-yl)pyrimidine-5-carboxylate], which “Disease assessments: SD (stable disease), number of patients” value (from here on “Disease assessments: SD (stable disease)”) ([1]; 40 mg QD cohort, oral, NSCLC patients, RECIST v1.1) is on record?
**A.** Its value is 3 patients.

**Q.** And the “additional patients with SD” value ([1]; 80 mg QD and above, including 1 at 180 mg QD)?
**A.** Its value is 6 patients.

**Q.** And the objective response ([1]; 80 mg QD and above, 2 confirmed PR at 80 mg QD, 1 confirmed complete response at 120 mg QD, 2 PR awaiting confirmation at 160 mg QD)?
**A.** Its objective response is 5 patients.

**Q.** And the “Disease assessments: PR (partial response), number of patients” value [1, 8]?
**A.** Its value is 2 patients.

**Q.** And the “Disease assessments: SD (stable disease)” value [1, 8]?
**A.** Its value is 2 patients.

**Q.** And the “Disease assessments: CR (complete response), number of patients” value [1, 9]?
**A.** Its value is 1 patient.

**Q.** What about the “Disease assessments: SD (stable disease)” value [1, 9] of the same compound?
**A.** The value was 2 patients.

**Q.** What about the “Disease assessments: SD (stable disease)” value ([1]; 160 mg QD cohort, oral, NSCLC patients, RECIST v1.1) of the same compound?
**A.** The value was 1 patient.

**Q.** And the “Disease assessments: PR (partial response), number of patients” value ([1]; 160 mg QD cohort, oral, NSCLC patients, RECIST v1.1, unconfirmed)?
**A.** Its value is 2 patients ^a.

**Q.** And the “discontinuation for documented progressive disease (PD) per RECIST version 1.1, patients” value ([1]; 52 patients, data cut)?
**A.** The value was 26.9%.

**Q.** And the “progressive disease (PD) as best response” value ([1]; of 14 evaluable patients, 40 mg n=3, 80 mg n=1, 120 mg n=1)?
**A.** Its value is 5 patients.

**Q.** And the “stable disease (SD) as best response” value ([1]; of 14 evaluable patients, 40 mg n=3, 80 mg n=2, 120 mg n=1)?
**A.** The value was 6 patients.

**Q.** And the “partial response (PR) as best response” value ([1]; of 14 evaluable patients, 80 mg n=2 both confirmed, 120 mg single PR awaiting confirmation)?
**A.** Its value is 3 patients.

**Q.** What about the “response (PR, CR) versus prior treatment” value ([1]; prior therapies including EGFR TKIs and immuno-oncology agents) of the same compound?
**A.** The value was “observed in patients regardless of prior treatment therapies”.

**Q.** What about the “maximum tolerated dose (MTD)” value ([2]; QD, oral, NSCLC patients, dose escalation 5-180 mg QD and 40 mg BID) of the same compound?
**A.** Its value is 160 mg.

**Q.** And the “discontinuation for adverse event (AE), patients” value ([2]; human, in vivo)?
**A.** Its value is 15.4%.

**Q.** What about the “patients with Grade 3 TEAEs” value ([2]; human, in vivo) of the same compound?
**A.** Its value is 51.9%.

**Q.** And the “patients with at least 1 treatment-emergent serious adverse event (SAE)” value ([2]; human, in vivo)?
**A.** Its value is 38.5%.

**Q.** What about the “patients with at least 1 treatment-related SAE” value ([2]; human, in vivo) of the same compound?
**A.** Its value is 9.6%.

**Q.** What about the “patients with at least 1 treatment-related adverse event (TRAE)” value ([2]; human, in vivo) of the same compound?
**A.** The value was 78.8%.

**Q.** What about the “patients with at least one TEAE” value ([2]; human, in vivo) of the same compound?
**A.** Its value is 88.5%.

**Q.** And the dose limiting toxicities ([2]; in vivo)?
**A.** The dose limiting toxicities was “Two dose limiting toxicities, both pneumonitis”.

**Q.** And the SAEs [3]?
**A.** The SAEs was “No SAEs were reported”.

**Q.** What about the safety and tolerability ([3]; up to a single oral dose of 160 mg) of the same compound?
**A.** Its safety and tolerability is “safe and well tolerated”.

**Q.** And the “accumulation, peak/trough ratio and molar metabolite/parent Cav ratios of the two active metabolites versus dose” value ([4]; 5 to 180 mg QD, suggesting no obvious trend of time-dependent inhibition or auto-induction)?
**A.** Its value is “independent of Compound (A) dose”.

**Q.** What about the “AUC24 dependence on dose” value ([4]; Cycle 2 Day 1, multiple dose, 5 to 180 mg QD) of the same compound?
**A.** Its value is “increased in an approximately dose-proportional manner”.

**Q.** And the “AUC0-24,ss dependence on dose” value ([4]; NSCLC patients, daily oral doses 5-120 mg, first results)?
**A.** The value was “increased in a dose-proportional manner”.

**Q.** What about the half-life ([4]; NSCLC patients, daily oral doses 5-120 mg, first results, read-out: effective t1/2 (converted)) of the same compound?
**A.** Its half-life is roughly 16 h.

**Q.** And the half-life ([4]; oral QD, NSCLC patients, read-out: effective half-life based on accumulation, geometric mean (converted))?
**A.** Its half-life is roughly 15 h.

**Q.** What about the half-life ([4]; oral QD, NSCLC patients, read-out: effective half-life based on accumulation, range) of the same compound?
**A.** Its half-life is 6 to 27 h.

**Q.** And the “accumulation in AUC24” value ([4]; oral QD)?
**A.** Its value is “approximately 1.5 fold”.

**Q.** What does the source list for C=CC(=O)Nc1cc(Nc2ncc(C(=O)OC(C)C)c(-c3cn(C)c4ccccc34)n2)c(OC)cc1N(C)CCN(C)C.Cc1ccc(S(=O)(=O)O)cc1 [Tosylate, isopropyl 2-((5-acrylamido-4-((2-(dimethylamino)ethyl) (methyl)amino)-2-methoxyphenyl)amino)-4-(1-methyl-1H-indol-3-yl)pyrimidine-5-carboxylate tosylate]?
**A.** XRPD after storage ([5]; 7 days, all storage conditions (ambient light, 40° C./75% RH, 80° C.)): No change under all storage; Purity, 40° C./75% RH ([5]; HPLC purity after 7 days, open vial, 40° C./75% RH): 99.4; Purity, 80° C. ([5]; HPLC purity after 7 days, open vial, 80° C.): 99.4; Purity, Ambient light ([5]; HPLC purity after 7 days, open vial, ambient light, room temperature): 99.5; Input purity ([5]; HPLC purity before stress storage): 99.7; Chemical Stability ([5]; summary in Table 17): Stable; pH at Saturation [6]: 6.38; GVS (Hygroscopicity) [7]: 1.4%; solubility at 24 h (physchem): 400 µg/mL
